{"source": "paper PMC11036874", "about": "“In vitro characterization of [^125I]HY-3-24, a selective ligand for the dopamine D3 receptor” (Frontiers in Neuroscience, 2024)", "key": {"benzodiazepine receptor": {"target": "benzodiazepine receptor", "assay": "PDSP binding screen", "conditions": "HCl salt", "description": "(§1) The binding of HY-3-24 to various GPCRs was investigated through comprehensive screening by Psychoactive Drug Screening Program (PDSP) (Supplementary Table S1) ([Besnard et al., 2012]). These GPCRs included major neurotransmitter receptors family (e.g., dopamine, serotonin, histamine, opioid, muscarinic, adrenergic, sigma receptors, ɤ-amino-butyric acid type A, and benzodiazepine receptors) and transporters (e.g., dopamine, norepinephrine, and serotonin transporter)."}, "dopamine D3": {"target": "dopamine D3 (Homo sapiens, UniProt P35462)", "sequence (P35462 whole entry)": "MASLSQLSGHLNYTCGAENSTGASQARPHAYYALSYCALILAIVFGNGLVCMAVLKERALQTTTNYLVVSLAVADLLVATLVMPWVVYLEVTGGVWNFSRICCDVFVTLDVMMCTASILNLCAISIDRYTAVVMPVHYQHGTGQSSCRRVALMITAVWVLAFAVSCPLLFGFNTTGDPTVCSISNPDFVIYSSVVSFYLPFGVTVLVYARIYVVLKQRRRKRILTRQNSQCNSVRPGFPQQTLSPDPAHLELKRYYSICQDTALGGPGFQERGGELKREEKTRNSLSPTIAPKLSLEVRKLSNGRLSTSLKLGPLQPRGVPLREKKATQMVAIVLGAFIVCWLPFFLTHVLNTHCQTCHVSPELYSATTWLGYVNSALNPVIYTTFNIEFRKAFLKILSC", "assay": "PDSP binding screen", "conditions": "HCl salt, [3H]N-methylspiperone", "description": "as §1"}, "serotonin 5-HT2B": {"target": "serotonin 5-HT2B (Homo sapiens, UniProt P41595)", "sequence (P41595 whole entry)": "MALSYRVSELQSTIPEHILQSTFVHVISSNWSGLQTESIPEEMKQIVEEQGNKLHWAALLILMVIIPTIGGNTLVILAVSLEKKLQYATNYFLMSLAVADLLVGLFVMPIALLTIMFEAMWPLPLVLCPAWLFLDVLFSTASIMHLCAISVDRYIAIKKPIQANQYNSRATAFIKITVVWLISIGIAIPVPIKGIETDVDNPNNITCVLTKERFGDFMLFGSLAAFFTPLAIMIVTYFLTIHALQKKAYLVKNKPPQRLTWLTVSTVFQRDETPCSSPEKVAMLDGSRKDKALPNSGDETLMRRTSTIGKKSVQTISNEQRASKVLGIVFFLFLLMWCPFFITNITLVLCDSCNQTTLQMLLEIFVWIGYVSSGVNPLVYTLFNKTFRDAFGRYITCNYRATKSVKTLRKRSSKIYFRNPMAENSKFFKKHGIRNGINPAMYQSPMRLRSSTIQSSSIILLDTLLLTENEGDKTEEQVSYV", "assay": "PDSP binding screen", "conditions": "HCl salt", "description": "as §1"}, "[1]": {"target": "T1, dopamine active transporter (Homo sapiens, UniProt Q01959)", "T1 construct": "Psychoactive Drug Screening Program (PDSP)", "T1 sequence (Q01959 whole entry)": "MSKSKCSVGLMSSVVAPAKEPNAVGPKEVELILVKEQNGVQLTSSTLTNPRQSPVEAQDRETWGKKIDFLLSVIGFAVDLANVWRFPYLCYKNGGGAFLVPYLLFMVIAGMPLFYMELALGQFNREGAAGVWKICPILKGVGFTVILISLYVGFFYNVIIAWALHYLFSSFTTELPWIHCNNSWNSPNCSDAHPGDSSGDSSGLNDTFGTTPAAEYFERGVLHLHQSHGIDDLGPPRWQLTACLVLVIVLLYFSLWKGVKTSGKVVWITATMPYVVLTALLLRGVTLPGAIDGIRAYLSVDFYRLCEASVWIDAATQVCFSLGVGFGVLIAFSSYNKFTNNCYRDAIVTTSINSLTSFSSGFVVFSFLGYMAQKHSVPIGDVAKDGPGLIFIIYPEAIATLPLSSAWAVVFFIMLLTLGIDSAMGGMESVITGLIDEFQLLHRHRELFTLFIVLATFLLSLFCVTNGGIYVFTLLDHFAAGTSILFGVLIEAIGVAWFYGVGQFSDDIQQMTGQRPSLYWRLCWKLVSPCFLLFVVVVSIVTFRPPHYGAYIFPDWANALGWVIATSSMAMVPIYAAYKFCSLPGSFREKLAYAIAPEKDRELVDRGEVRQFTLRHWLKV", "assay": "PDSP binding screen", "conditions": "HCl salt", "description": "as §1"}, "histamine H1": {"target": "T2, histamine H1 (Homo sapiens, UniProt P35367)", "T2 construct": "Psychoactive Drug Screening Program (PDSP)", "T2 sequence (P35367 whole entry)": "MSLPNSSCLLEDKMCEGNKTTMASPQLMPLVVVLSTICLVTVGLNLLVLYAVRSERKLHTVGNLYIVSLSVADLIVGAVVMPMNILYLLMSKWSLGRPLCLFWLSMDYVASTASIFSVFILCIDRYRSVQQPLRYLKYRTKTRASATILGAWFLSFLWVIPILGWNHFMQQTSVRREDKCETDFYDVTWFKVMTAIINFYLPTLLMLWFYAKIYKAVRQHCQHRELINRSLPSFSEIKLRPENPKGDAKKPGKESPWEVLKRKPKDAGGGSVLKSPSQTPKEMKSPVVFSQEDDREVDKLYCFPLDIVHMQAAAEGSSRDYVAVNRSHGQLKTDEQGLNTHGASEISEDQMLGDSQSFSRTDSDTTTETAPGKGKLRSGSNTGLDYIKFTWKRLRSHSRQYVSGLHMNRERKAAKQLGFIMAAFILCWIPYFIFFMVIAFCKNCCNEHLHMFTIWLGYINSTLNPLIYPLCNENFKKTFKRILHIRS", "assay": "PDSP binding screen", "conditions": "HCl salt", "description": "as §1"}, "[2]": {"target": "ɤ-aminobutyric acid type A", "assay": "PDSP binding screen", "conditions": "HCl salt", "description": "as §1"}, "[3]": {"target": "benzodiazepine rat brain site", "assay": "PDSP binding screen", "conditions": "HCl salt", "description": "as §1"}, "[4]": {"target": "T3, norepinephrine transporter (Homo sapiens, UniProt P23975)", "T3 construct": "Psychoactive Drug Screening Program (PDSP)", "T3 sequence (P23975 whole entry, species assumed)": "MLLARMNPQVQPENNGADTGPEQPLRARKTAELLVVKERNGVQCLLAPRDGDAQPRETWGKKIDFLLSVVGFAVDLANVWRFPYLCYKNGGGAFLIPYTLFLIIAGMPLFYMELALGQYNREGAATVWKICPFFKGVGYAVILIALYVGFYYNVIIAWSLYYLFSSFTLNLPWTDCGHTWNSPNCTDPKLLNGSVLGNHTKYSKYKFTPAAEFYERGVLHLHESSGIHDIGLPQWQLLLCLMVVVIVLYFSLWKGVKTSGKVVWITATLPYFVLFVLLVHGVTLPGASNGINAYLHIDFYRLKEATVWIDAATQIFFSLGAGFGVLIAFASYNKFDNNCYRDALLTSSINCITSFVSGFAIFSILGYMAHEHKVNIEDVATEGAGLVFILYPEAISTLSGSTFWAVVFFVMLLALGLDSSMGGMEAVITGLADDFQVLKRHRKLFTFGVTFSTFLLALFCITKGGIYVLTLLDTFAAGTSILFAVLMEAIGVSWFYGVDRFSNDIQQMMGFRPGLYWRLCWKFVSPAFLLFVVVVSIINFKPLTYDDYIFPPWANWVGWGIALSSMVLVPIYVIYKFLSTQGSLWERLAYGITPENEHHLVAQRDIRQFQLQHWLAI", "assay": "PDSP binding screen", "conditions": "HCl salt", "description": "as §1"}, "Muscarinic M3": {"target": "T4, Muscarinic M3 (Homo sapiens, UniProt P20309)", "T4 construct": "Psychoactive Drug Screening Program (PDSP)", "T4 sequence (P20309 whole entry)": "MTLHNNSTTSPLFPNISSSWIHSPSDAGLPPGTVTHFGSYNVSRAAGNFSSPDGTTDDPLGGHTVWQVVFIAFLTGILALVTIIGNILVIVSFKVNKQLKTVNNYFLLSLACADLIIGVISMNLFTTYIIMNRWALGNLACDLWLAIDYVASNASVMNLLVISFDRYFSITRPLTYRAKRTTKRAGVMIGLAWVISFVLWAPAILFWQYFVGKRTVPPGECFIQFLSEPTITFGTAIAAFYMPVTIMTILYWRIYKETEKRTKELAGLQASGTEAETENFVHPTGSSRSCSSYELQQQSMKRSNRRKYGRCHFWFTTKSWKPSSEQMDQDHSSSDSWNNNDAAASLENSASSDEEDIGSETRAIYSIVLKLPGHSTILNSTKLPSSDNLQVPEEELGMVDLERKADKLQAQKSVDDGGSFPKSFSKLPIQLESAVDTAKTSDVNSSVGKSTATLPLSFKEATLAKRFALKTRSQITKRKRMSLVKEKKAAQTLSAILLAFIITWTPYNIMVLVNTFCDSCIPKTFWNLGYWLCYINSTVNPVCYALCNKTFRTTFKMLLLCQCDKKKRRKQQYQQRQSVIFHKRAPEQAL", "assay": "PDSP binding screen", "conditions": "HCl salt", "description": "as §1"}, "Muscarinic M5": {"target": "T5, Muscarinic M5 (Homo sapiens, UniProt P08912)", "T5 construct": "Psychoactive Drug Screening Program (PDSP)", "T5 sequence (P08912 whole entry)": "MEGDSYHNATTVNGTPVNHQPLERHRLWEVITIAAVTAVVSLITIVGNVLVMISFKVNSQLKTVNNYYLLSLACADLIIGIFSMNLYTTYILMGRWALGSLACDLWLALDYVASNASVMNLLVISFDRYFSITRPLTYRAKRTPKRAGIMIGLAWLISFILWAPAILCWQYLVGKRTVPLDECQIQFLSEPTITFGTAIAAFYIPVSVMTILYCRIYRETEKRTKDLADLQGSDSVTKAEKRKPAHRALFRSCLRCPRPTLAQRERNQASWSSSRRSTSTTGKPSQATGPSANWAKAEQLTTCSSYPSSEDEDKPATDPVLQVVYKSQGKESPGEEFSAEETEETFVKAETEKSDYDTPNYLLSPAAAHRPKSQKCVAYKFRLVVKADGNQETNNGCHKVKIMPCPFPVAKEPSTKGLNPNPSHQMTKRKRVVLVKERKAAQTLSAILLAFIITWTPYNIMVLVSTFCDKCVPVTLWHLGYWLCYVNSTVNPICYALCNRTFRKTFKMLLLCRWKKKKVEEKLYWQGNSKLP", "assay": "PDSP binding screen", "conditions": "HCl salt", "description": "as §1"}, "human D3R [5]": {"target": "T6, human D3R (Homo sapiens, UniProt P35462)", "T6 sequence (P35462 whole entry)": "as the sequence (P35462 whole entry) above", "assay": "β-arrestin recruitment assay for D3R", "assay_type": "cell-based", "parameters": "expressed in transfected cells", "procedure": "Chinese hamster ovary CHO-K1 cells (CHO-K1) which were over expressed human D3R were cultured in assaycomplete™ cell culture kit 107 (DiscoverX, Fremont, CA, United States). Cells were seeded at a density of 25,000 cells per well of 96-well plate, and incubated at 5% CO2, 37°C. After 46 h, HY-3-24 was (10^−5 to 10^−11) in phosphate-buffered saline (PBS) was added to the cells. The plates were incubated for 30 min at 5% CO2, 37°C for the agonist binding assay; for the antagonist assay, cells were treated with 30 nM (EC80) of dopamine and then the mixture was incubated for 90 min. PathHunter™ β-arrestin recruitment assay kit (DiscoverX, Fremont, CA, United States) was added to each well, and the plate was incubated for 80 min at RT under the dark condition. The chemiluminescent signal was measured on a PerkinElmer Enspire plate reader (PerkinElmer, Boston, MA, United States). Data were analyzed by Prism followed by non-linear regression."}, "human D2R": {"target": "T7, human D2R (Homo sapiens, UniProt P14416)", "T7 construct": "expressed in transfected cells; host or cells: HEK293", "T7 sequence (P14416 whole entry)": "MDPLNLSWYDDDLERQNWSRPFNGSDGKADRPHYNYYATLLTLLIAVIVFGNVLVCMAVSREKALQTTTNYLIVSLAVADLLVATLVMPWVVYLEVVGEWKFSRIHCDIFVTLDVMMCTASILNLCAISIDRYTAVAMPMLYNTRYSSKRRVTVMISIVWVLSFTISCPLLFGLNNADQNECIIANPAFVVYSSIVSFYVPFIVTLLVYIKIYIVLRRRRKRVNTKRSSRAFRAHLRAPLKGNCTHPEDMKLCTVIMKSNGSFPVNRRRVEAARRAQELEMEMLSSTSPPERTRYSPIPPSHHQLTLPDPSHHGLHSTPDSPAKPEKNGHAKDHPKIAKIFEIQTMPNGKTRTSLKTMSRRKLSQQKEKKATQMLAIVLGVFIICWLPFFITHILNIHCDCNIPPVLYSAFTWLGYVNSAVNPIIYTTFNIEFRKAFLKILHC", "assay": "D2R radioligand binding assay with [125I]IABN", "conditions": "human D2R transfected HEK293 cell membranes, mean ± SEM of three experiments", "procedure": "(§2) The dopamine receptor binding assay was performed according to previous studies ([Luedtke et al., 2000]; [Vangveravong et al., 2006]; [Reilly et al., 2017]), and human D2R or D3R or D4 transfected HEK293 cells were used for dopamine receptor binding assay. The cells were grown in Dulbecco’s Modified Eagle Medium including 10% FBS, 0.1% Penn Strep, […] of geneticin (G418) for human D2R or D3R transfected HEK293 cells, and […] of puromycin for human D4 HEK293 cells at 5% CO2, 37°C. The cells were collected by centrifuge (6,000 × g, 10 min), and the supernatant was discarded. Cold homogenization buffer (50 mM Na Hepes, 0.1 mM EDTA, 1 mM DTT, pH 7.4) was added into the pellet and homogenized by a polytron (Brinkmann Instruments, Westbury, NY, United States), and centrifuged at 40,000 × g for 10 min. This process was repeated two more times to get final pellet, and the membranes were then resuspended with HB buffer including 5 mM MgCl2 and stored at −80°C until use.\n(§3) HY-3-24 was prepared in 10^−5 to 10^−11 M concentration range with assay buffer (50 mM Tris–HCl, 150 mM NaCl, 10 mM EDTA, pH 7.5). […] The membrane was washed with cold buffer (three times), and collected filters were counted on a gamma counter (GMI, Minnesota, United States). The results were analyzed by nonlinear regression, and the data were reported mean ± SEM values by three independent experiments."}, "human D4": {"target": "T8, human D4 (Homo sapiens, UniProt P21917)", "T8 construct": "expressed in transfected cells; host or cells: HEK293", "T8 sequence (P21917 whole entry)": "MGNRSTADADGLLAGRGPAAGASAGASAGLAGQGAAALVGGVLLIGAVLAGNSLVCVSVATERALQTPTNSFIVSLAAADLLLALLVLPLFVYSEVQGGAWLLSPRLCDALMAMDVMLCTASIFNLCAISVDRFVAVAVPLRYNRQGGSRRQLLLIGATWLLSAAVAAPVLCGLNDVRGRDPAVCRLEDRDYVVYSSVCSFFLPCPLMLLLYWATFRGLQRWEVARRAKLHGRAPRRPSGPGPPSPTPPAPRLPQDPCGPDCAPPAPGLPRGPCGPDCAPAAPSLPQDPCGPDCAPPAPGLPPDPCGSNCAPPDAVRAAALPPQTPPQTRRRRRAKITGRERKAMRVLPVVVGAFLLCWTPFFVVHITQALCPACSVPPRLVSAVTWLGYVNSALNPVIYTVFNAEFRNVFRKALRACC", "assay": "D4R radioligand binding assay with [125I]IABN", "conditions": "human D4 transfected HEK293 cell membranes, mean ± SEM of three experiments", "procedure": "as §2, §3"}, "sigma-2": {"target": "T9, sigma-2 (Rattus norvegicus, UniProt Q5U3Y7)", "T9 construct": "rat liver homogenates (15 μg/100 μL); from tissue; host or cells: rat liver homogenates", "T9 sequence (Q5U3Y7 whole entry)": "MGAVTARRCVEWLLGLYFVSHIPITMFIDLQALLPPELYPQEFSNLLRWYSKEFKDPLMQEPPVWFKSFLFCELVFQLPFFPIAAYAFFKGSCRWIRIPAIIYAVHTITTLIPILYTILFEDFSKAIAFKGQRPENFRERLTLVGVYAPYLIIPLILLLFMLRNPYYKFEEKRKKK", "assay": "Sigma-2 binding assay with [125I]RHM4", "conditions": "[125I]RHM4, rat liver homogenates", "procedure": "For sigma-2 binding assay, HY-3-24 prepared in 10^−5 to 10^−11 M concentration range was mixed with [^125I]RHM4 (50 μL,~200,000 cpm) and rat liver homogenates (15 μg/100 μL). The mixture was vortexed briefly and incubated at room temperature (RT) for 90 min. The [^125I]RHM4-bound membrane was collected through Whatman CF/C filters by 24-well harvester (Brandel Inc., Maryland, United States), and washed with 4 mL of cold buffer. The filters were counted on a gamma counter (PerkinElmer, Massachusetts, United States). Cold RHM4 was used for defining non-specific binding. The Ki value was obtained by PRISM 9."}, "human D3R [6]": {"target": "T6, human D3R", "assay": "D3R radioligand binding assay with [125I]IABN", "parameters": "expressed in transfected cells; host or cells: HEK293", "procedure": "as §2\nHY-3-24 was prepared in 10^−5 to 10^−11 M concentration range with assay buffer (50 mM Tris–HCl, 150 mM NaCl, 10 mM EDTA, pH 7.5). Membrane homogenates (5–15 μg) and [^125I]IABN (approximately 0.5 nM) was added into serial dilutions of the compound and incubated at 37°C, for 60 min. Total binding volume was 150 μL, and 20 μM of (+)-butaclamol was used to define non-specific binding. Cold buffer (10 mM Tris–HCl, 150 mM NaCl, pH 7.5) was added into the reaction tube to terminate binding assay, and mixture was quickly filtered through a Schleicher and Schuell No.32 filter (GE Heathcare Bio-Sciences, Pittsburgh, PA, United States). The membrane was washed with cold buffer (three times), and collected filters were counted on a gamma counter (GMI, Minnesota, United States). The results were analyzed by nonlinear regression, and the data were reported mean ± SEM values by three independent experiments."}, "[7]": {"conditions": "[125I]IABN, human D3R transfected HEK293 cell membranes, mean ± SEM of three experiments"}}, "note": "“Also recorded” adds a separate entry of the source."}
{"smiles": "CCN(CCCNC(=O)c1ccc(-c2ccncc2)cc1)CCNC(=O)c1cc(I)cc(OC)c1OC", "note": "[HY-3-24, N-(2-(Ethyl(3-(4-(pyridin-4-yl)benzamido)propyl)amino)ethyl)-5-iodo-2,3-dimethoxybenzamide]", "values": [{"measurement": "Ki", "setting": "benzodiazepine receptor", "value": 5640, "unit": "nM"}, {"measurement": "Ki", "setting": "dopamine D3", "value": 1.2, "unit": "nM"}, {"measurement": "Ki", "setting": "serotonin 5-HT2B", "value": 38, "unit": "nM"}, {"measurement": "Ki", "setting": "[1]", "value": 1130, "unit": "nM"}, {"measurement": "Ki", "setting": "histamine H1", "value": 244, "unit": "nM"}, {"measurement": "Ki", "setting": "[2]", "value": 1120, "unit": "nM"}, {"measurement": "Ki benzodiazepine rat brain site", "setting": "[3]", "value": "N.A. (not active, less than 50% inhibition in primary binding assays at 10 µM)"}, {"measurement": "Ki", "setting": "[4]", "value": 5950, "unit": "nM"}, {"measurement": "Ki", "setting": "Muscarinic M3", "value": 1780, "unit": "nM"}, {"measurement": "Ki", "setting": "Muscarinic M5", "value": 118, "unit": "nM"}, {"measurement": "EC50 β-arrestin recruitment D3R", "setting": "human D3R [5]; agonist mode, 10^-5 to 10^-11 M, human D3R CHO-K1 cells", "value": "no β-arrestin recruitment; also recorded: N.A (not active)"}, {"measurement": "IC50", "setting": "human D3R [5]; antagonist mode, vs 30 nM (EC80) dopamine, human D3R CHO-K1 cells", "value": "1.5 ± 0.58", "unit": "nM"}, {"measurement": "functional mode at D3R", "setting": "human D3R [5]; β-arrestin recruitment assay", "value": "antagonist"}, {"measurement": "Ki", "setting": "human D2R", "value": "86.7 ± 11.9", "unit": "nM"}, {"measurement": "Ki", "setting": "human D4", "value": "> 1000", "unit": "nM"}, {"measurement": "Ki D4R", "setting": "human D4; listed as HY-2-34", "value": "negligible"}, {"measurement": "binding to sigma-2 receptors", "setting": "sigma-2", "value": "did not bind"}, {"measurement": "binding to sigma-2 receptors", "setting": "sigma-2; listed as HY-2-34", "value": "low affinity"}, {"measurement": "Ki", "setting": "human D3R [6]; [7]", "value": "0.67 ± 0.11", "unit": "nM"}, {"measurement": "Ki D3R", "setting": "human D3R [6]; [7]", "value": "sub-nM affinity"}, {"measurement": "selectivity for D3R vs. D2R", "setting": "human D3R [6]; from Ki values, [125I]IABN", "value": "~ 129 fold"}, {"measurement": "D2/D3 ratio", "setting": "human D3R [6]; ratio of Ki D2R to Ki D3R", "value": 129}]}
